Patent publication US7312358B2, “Pharmaceutically active sulfanilide derivatives” (Laboratoires Serono SA, priority 2000, dated 2007)
Each block holds one molecule with its values, some of them ahead of it.

What was measured:
hV1a = hV1a (Homo sapiens, UniProt P37288); assay: In vitro competition binding assay on hV1a receptor with scintillating proximity assay; parameters: expressed in transfected cells; host or cells: CHO cells (membranes); details: membranes from CHO cells expressing hV1a receptor; radiolabel [125I]-LVA; SPA; read-out: Binding Affinity Human V1a Ki
Sequence of hV1a (P37288 whole entry): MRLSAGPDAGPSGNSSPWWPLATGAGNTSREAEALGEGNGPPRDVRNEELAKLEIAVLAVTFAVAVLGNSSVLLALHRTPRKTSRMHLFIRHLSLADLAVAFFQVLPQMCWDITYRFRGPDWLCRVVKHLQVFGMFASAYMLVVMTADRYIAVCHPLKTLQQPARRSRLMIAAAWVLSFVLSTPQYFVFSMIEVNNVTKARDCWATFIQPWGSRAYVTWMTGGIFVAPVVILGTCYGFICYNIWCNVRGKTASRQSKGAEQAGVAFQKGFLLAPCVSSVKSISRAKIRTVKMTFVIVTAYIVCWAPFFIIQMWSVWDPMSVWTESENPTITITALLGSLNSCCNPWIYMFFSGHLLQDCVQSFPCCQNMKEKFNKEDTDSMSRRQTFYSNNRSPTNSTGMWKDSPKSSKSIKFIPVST
Experimental: b) In Vitro Competition Binding Assay on hV1a Receptor with Scintillating Proximity Assay
This assays allows to determine the affinity of the test compounds for the V1a receptor. Membranes from CHO cells expressing the hV1a receptor were resuspended in buffer containing 50 mM Tris-HCl, pH 7.4, 5 mM MgCl2 and 0.1% BSA (w/v). The membranes (5-10 μg) were mixed with 0.2 mg wheat-germ aglutinin (WGA) SPA bead (type A) and 0.03 nM of the radiolabel [^125I]-LVA (LVA being Linear Vasopressin Antagonist and is an analogue of AVP for competition binding experiments). Non-specific binding was determined in the presence of 1 μM AVP. The total assay volume was 100 μl. The plates (Corning 0 NBS plate) were incubated at room temperature for 2 hours and counted on a Mibrobeta plate counter. The tests compounds were used in concentrations of 30 μM, 10 μM, 1 μM, 300 nM, 100 nM, 10 nM, 1 nM, 100 pM, 10 pM. The competition binding data were analysed using the iterative, nonlinear, curve-fitting program, Graph pad “Prism”.
(§1) The binding affinities to the Via receptor of the sulfanilide derivatives claimed in the formula I were assessed using the above described in vitro biological assay. The values refer to the binding affinity (IC50; HM) of the example compounds according to formula I to the V1a receptor. From the values shown in Table 1 it can be derived that said test compounds according to formula I do show a significant binding to the Via receptor.

hOT-R = target: T1, hOT-R (Homo sapiens, UniProt P30559); assay: Inhibition of oxytocin mediated Ca2+-mobilization by FLIPR (HEK cells); type: cell-based; details: fluo-4, OT 40 nM
T1 construct: expressed in transfected cells; host or cells: HEK (Human Embryonic Kidney) cells
T1 sequence (P30559 1-389): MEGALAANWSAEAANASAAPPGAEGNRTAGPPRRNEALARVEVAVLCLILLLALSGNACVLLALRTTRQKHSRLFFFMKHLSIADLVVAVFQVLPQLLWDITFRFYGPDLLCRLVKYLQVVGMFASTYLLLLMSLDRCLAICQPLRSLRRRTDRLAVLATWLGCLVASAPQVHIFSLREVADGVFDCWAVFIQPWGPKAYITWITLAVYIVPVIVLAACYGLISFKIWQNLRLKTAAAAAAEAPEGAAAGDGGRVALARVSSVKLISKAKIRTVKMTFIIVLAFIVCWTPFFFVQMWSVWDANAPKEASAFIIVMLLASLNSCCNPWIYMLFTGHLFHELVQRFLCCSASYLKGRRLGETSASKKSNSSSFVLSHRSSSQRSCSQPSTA
Excerpt: c) Functional Assay No. 1: Inhibition of Oxytocitn Mediated Ca^2+-Mobilization by FLIPR (Fluorescent Imaging Plate Reader)
FLIPR is a machine for fluorescence imaging using a laser that is capable of illuminating a 96-well plate and a means of simultaneously reading each well thus enabling rapid measurements on a large number of samples.
This assay intends to show the inhibition of the OT/OT-R mediated calcium mobilisation—being necessary to cause uterine contractions—by using test compounds of formula (I).
Preparing the plates: FLIPR-plates were pre-coated with PLL (Poly-L-Lysine) 10 μg/ml+0.1% gelatine to attach the HEK (Human Embryonic Kidney) cells for 30 min up to 2 days at 37° C. The cells were plated out into 96-well plates (60000 cells/well).
Labelling with fluo-4: […] fluo-4 (fluorescent marker) were dissolved in 20 μl pluronic acid (20% in DMSO). The dissolved fluo-4 was then diluted in 10 ml DMEM (Dubecco's Minimal Essential Medium-F12 medium without FCS (Fetal Calf Serum). The medium was removed from the plates, followed by one wash with DNEM-F12 medium. Now, 100 μl of the DMEM-F12 medium containing fluo-4 were added and the cells incubated for 1.5-2 h (HEK-cells). The cells now contain the fluorescent marker.
Buffer: 145 mM NaCl, 5 mM KCl, 1 mM MgCl2, 10 mM Hepes, 10 mM Glucose, EGTA (Ethylene-bis oxyethylene nitrilo tetraacetic acid). Adjust to pH 7.4.
Performance of the assay: A minimum of 80 μl/well of antagonists (5×) in the above buffer (1×) were prepared (96-well plates). The antagonists were added to the well-plates at different concentrations (30 μM, 10 μM, 1 μM, 300 nM, 100 nM, 10 nM, 1 nM, 100 pM, 10 pM).
OT is added at a concentration of 40 nM.
The fluorescent marker being sensitive to the amount of Ca^2+ mobilized within the cell may be quantified by the FLIPR machine.
The activities of the sulfanilide derivatives according to formula I were assessed using the above described in vitro biological assay. The values refer to the capacity of the example compounds according to formula I to effectively antagonize oxytocin-induced intracellular Ca^2+-mobilization mediated by the oxytocin receptor.

hOT receptor = target: T2, hOT receptor (Homo sapiens, UniProt P30559); assay: In vitro competition binding assay on hOT receptor with scintillating proximity assay; details: membranes from HEK293EBNA cells expressing hOT receptor; radiolabel [125I]-OVTA; SPA; read-out: Binding Affinity Human OT-R Ki
T2 construct: expressed in transfected cells; host or cells: HEK293EBNA cells (membranes)
T2 sequence (P30559 1-389): T1 sequence (P30559 1-389)
Experimental: a) In Vitro Competition Binding Assay on hOT Receptor with Scintillating Proximity Assay (Pharmaceutical Manufacturing International, 1992, p. 49-53 by Cook, N. D. et al)
This assays allows to determine the affinity of the test compounds for the OT receptor. Membranes from HEK293EBNA cells expressing the hOT receptor were resuspended in buffer containing 50 mM Tris-HCl, pH 7.4, 5 mM MgCl2 and 0.1% BSA (w/v). The membranes (2-4 μg) were mixed with 0.1 mg wheat-germ aglutinin (WGA) SPA bead (type A) and 0.2 nM of the radiolabel [^125I]-OVTA (OVTA being […] and is an analogue of OT for competition binding experiments). Non-specific binding was determined in the presence of 1 μM Oxytocin. The total assay volume was 100 μl. The plates (Corning (D NBS plate) were incubated at room temperature for 30 min and counted on a Mibrobeta plate counter. The tests compounds were used in concentrations of 30 μM, 10 μM, 1 μM, 300 nM, 100 nM, 10 nM, 1 nM, 100 pM, 10 pM. The competition binding data were analysed using the iterative, nonlinear, curve-fitting program, “Prism”.
as §1, with “oxytocin” for “Via”, “μM)” for “HM)”, “Oxytocin” for “V1a”

[1] = system: oxytocin-induced uterine contractions in the rat; assay: In vivo model for inhibition of uterine contractions; details: anaesthetised DES-treated non-pregnant female rat, route not given
Experimental: f) In Vivo Model for Inhibition of Uterine Contractions
The assay intends to show the biological effect of tested compounds in an in vivo model of preterm labor, premature birth.
Non-pregnant Charles River CD(SD) BR female rats (9-10 weeks old, 200-250 g) were treated at 18 and 24 hours before the experiment with 250 μg/kg, i.p. diethylstilbestrol (DES). For the assay, the animal was anaesthetised by urethane (1.75 g/kg, i.p.) and placed on an homeothennic operating table. The trachea was isolated and cannulated with a suitable polyethylene (PE) tubing. A midline incision at the hypogastrium level was made and one uterine horn exposed, its cephalic end cannulated with a PE240 tubing and, after filling the internal cavity with 0.2 ml of sterile physiological saline, connected to a “Gemini” amplifying/recording system via a P231D Gould Statham pressure transducer. For the i.v. route of administration of the test compounds, one jugular vein was isolated and cannulated with a PE60 tubing connected to a butterfly needle to allow the administration by a dispensing syringe. In the case of intraduodenal administration of the test compounds, the duodenum was isolated and similarly cannulated through a small incision in its wall. One carotid artery was also isolated and cannulated with PE60 catheter and connected to a suitable syringe for blood sample collection (see below). After a stabilization period, the same dose of oxytocin was repeatedly injected intravenously at 30-min intervals. […] Further injections of the same dose of oxytocin were then made for a suitable time after treatment to assess inhibitory effects of the compounds under study. The contractile response of the uterus to oxytocin was quantified by measuring the intra-uterine pressure and the number of contractions. The effect of the reference and test compounds were evaluated by comparing pre- and post-treatment pressure values. In addition, at 2, 30, 90 and 210 minutes after test compound administration, a 0.5-ml blood sample was withdrawn from the cannulated carotid artery of each experimental animal. Plasma was obtained by standard laboratory procedure and the resulting samples were stored at −20° C.
The activities of the sulfanilide derivatives claimed in the Formula I were assessed using the above described in vivo biological assay. The values refer to the capacity of the example compound according to Formula I to effectively antagonize oxytocin-induced uterine contractions in the rat.

SMILES: COc1ccc(N(CC(=O)Nc2ccc(C)cc2C)S(=O)(=O)c2ccc(OC)c(OC)c2)cc1 [2-[(3,4-Dimethoxy-benzenesulfonyl)-(4-methoxy-phenyl)amino]-N-(2,4-dimethyl-phenyl)-acetamide]
Ki (hV1a): 135 nM

SMILES: O=C(CN(c1cccc(Br)c1)S(=O)(=O)c1ccccc1)N/N=C/c1ccccc1O [N-(3-Bromo-phenyl)-N-(2-hydroxy-benzylidene-hydrazinocarbonylmethyl)-benzenesulfonamide]
Ki (hV1a): 503 nM

SMILES: O=C(CN(c1ccc(Br)cc1)S(=O)(=O)c1ccccc1)N1CCc2ccccc2C1 [N-(4-Bromo-phenyl)-N-[2-(3,4-dihydro-1H-isoquinolin-2-yl)-2-oxo-ethyl]-benzenesulfonamide]
Ki (hV1a): 58 nM

SMILES: C/C(=N\NC(=O)CN(c1ccc(Br)cc1)S(=O)(=O)c1ccccc1)c1ccccc1O [drawing 134, N-(4-Bromo-phenyl)-N-[1-(2-hydroxy-phenyl)-ethylidenehydrazinocarbonylmethyl]-benzenesulfonamide]
Ki (hV1a): 391 nM

SMILES: C/C(=N\NC(=O)CN(c1ccc(Br)cc1)S(=O)(=O)c1ccccc1)c1ccccc1O [drawing 139, N-(4-Bromo-phenyl)-N-[1-(2-hydroxy-phenyl)-ethylidene-hydrazinocarbonylmethyl]-benzenesulfonamide]
Ki (hV1a): 800 nM

Now from value to molecule, other results behind:

Ki (hV1a): 430 nM
SMILES: COc1ccc(N(CC(=O)NCCSc2ccccn2)S(=O)(=O)c2ccc(C)cc2)cc1 [2-[(4-Methoxy-phenyl)-(toluene-4-sulfonyl)-amino]-N-[2-(pyridin-2-ylsulfanyl)-ethyl]-acetamide]

Ki (hV1a): 45 nM
SMILES: COc1ccc(N(CC(=O)Nc2ccc(C)cc2C)S(=O)(=O)c2ccccc2)cc1 [2-[Benzenesulfonyl-(4-methoxy-phenyl)-amino]-N-(2,4-dimethyl-phenyl)-acetamide]

IC50 (hOT-R): 7 nM
Ki (hOT receptor): 0.8 nM
SMILES: O=C(CN(c1ccc(Cl)cc1)S(=O)(=O)c1ccc(OCCN2CCOCC2)cc1)NN=C1C(=O)Nc2ccccc21 [Example 55, N-(4-chlorophenyl)-4-[2-(4-morpholinyl)ethoxy]-N-{2-oxo-2-[2-(2-oxo-1,2-dihydro-3H-indol-3-ylidene)hydrazino]ethyl}benzenesulfonamide]
% Reduction of Uterine Contraction ([1]; dose 0.3 mg/kg): 4.3 ± 1.7%
% Reduction of Uterine Contraction ([1]; dose 1 mg/kg): 18.2 ± 3.7%
% Reduction of Uterine Contraction ([1]; dose 3 mg/kg): 39.8 ± 5.1%
% Reduction of Uterine Contraction ([1]; dose 10 mg/kg): 41.7 ± 12.5%
% Reduction of Uterine Contraction ([1]; dose 30 mg/kg): 71.3 ± 6.4%

IC50 (hOT-R): 13.6 nM
Ki (hOT receptor): 0.6 nM
SMILES: CN(C)CCCOc1ccc(S(=O)(=O)N(CC(=O)N/N=C2\C(=O)Nc3ccccc32)c2ccc(Cl)cc2)cc1 [Example 67, N-(4-chlorophenyl)-4-[3-(dimethylamino)propoxy]-N-{2-oxo-2-[(2Z)-2-(2-oxo-1,2-dihydro-3H-indol-3-ylidene)hydrazino]ethyl}benzenesulfonamide]
% Reduction of Uterine Contraction ([1]; dose 0.3 mg/kg): 9.3 ± 2.5%
% Reduction of Uterine Contraction ([1]; dose 1 mg/kg): 20.8 ± 2.2%
% Reduction of Uterine Contraction ([1]; dose 3 mg/kg): 34.4 ± 3.9%
% Reduction of Uterine Contraction ([1]; dose 10 mg/kg): 57.1 ± 4.8%
% Reduction of Uterine Contraction ([1]; dose 30 mg/kg): 67.4 ± 7.1%

Ki (hV1a): 370 nM
SMILES: Cc1ccc(N(CC(=O)NCC(O)c2ccccc2)S(=O)(=O)c2ccc(C)cc2)cc1 (stereo not shown) [N-(2-Hydroxy-2-phenyl-ethyl)-2-[(toluene-4-sulfonyl)-p-tolyl-amino]-acetamide]

Ki (hV1a): 750 nM
SMILES: O=C(CN(c1ccc(Cl)cc1)S(=O)(=O)c1ccccc1)N/N=C/c1ccccc1O [N-(4-Chloro-phenyl)-N-(2-hydroxy-benzylidene-hydrazinocarbonylmethyl)-benzenesulfonamide]

Ki (hV1a): 375 nM
Ki (hOT receptor): 246 nM
SMILES: CCOc1ccc(S(=O)(=O)N(CC(=O)N2CCc3ccccc3C2)c2ccc(C)cc2)cc1 [N-[2-(3,4-Dihydro-1H-isoquinolin-2-yl)-2-oxo-ethyl]-4-ethoxy-N-p-tolyl-benzenesulfonamide]
